According to patent US20150065440A1 (Progen Pharmaceuticals Limited, priority 2007, published 2015):
Like-named read-outs stand apart in the source and are kept apart here. Values belong to the compound of their own block, whether it stands above or below them.

Tests used:
HUVECs = experiment: Matrigel microtubule formation assay; type: cell-based, human; settings: for Microtubule Formation % inhibition at 10 μM: relative to controls
Description: (§1) Medium for the proliferation studies was prepared using EGM with 2% FBS and gentamicin only. In a later study, complete EGM was used for the VEGF groups in an attempt to enhance the proliferative index of VEGF-stimulated groups. For the tube formation assay, complete medium was used with only heparin omitted. Compounds under investigation were weighed out from powder stocks and diluted in PBS to 10 mM stock solutions and stored at −80° C. For experiments, compounds were subsequently diluted in EBM-2 medium (supplemented with 2% FBS and gentamicin) to various working concentration as required.
The tube formation assay was performed essentially as described by Malinda et al., with modifications.^41 HUVECs in the fourth or fifth passage at 70-80% confluence were harvested and resuspended in Lonza endothelial growth medium (EGM2) containing all supplements as directed by manufacturer, except heparin, at a cell density of 4×10^5 cells per mL. For each set of triplicate wells, 200 μL of cells (4×10^5/mL) were treated with an equal volume of compound to obtain final concentrations of 10, 50 or 100 μM (thus ensuring 1×300 μL are available for each condition). A 100 μL aliquot of cells was then plated onto 96-well plates pre-coated with growth factor reduced Matrigel™ (50 μL for 30 min followed by a further 30 μL for 1 h) and incubated for 18-22 h. Tube formation was examined by phase-contrast microscopy and images were collected using an Olympus C5050 digital camera. Tube formation inhibition was quantitated manually from images by recording the total number of nodes connecting 3 or more tubules. Untreated HUVECs were used as a control for normal cell growth and tube formation in Matrigel.

[1] = test system: HUVEC proliferation induced by VEGF; experiment: Growth factor induced endothelial cell proliferation assay, VEGF; type: cell-based, human; settings: 72 h, read-out: VEGF (IC50) inhibition of HUVEC proliferation
Text: (§2) HUVEC cells were maintained and subcultured according to standard cell culture protocols essentially as described by Lonza. Briefly, cells were maintained in Lonza endothelial growth media (EGM) with recommended supplements and growth factors (VEGF, FGF2, EFG, IGF, hydrocortisone, fetal bovine serum (FBS), ascorbic acid, heparin and gentamicin). Cells were subcultured when they reached 70-80% confluence by trypsinisation and reseeding in fresh growth medium in new culture vessels at 2500 to 5000 cells/cm^2 of vessel surface area. Cell counts were performed using a haemocytometer and viable cells were visualized with trypan blue.
as §1
(§3) In the first of a series of experiments, the assay was further optimized by examining the cell density and growth factor concentration required to induce maximal proliferation by growth factors. Briefly, 100 μL of cells was added to each well at concentrations between 1-3×10^3 per well. Growth factors and test compounds were then added in 50 μL volumes at specified concentrations to obtain a final volume of 200 μL. Following incubation for 70 h, 20 μL of the CellTitre 96® Aqueous One Solution Cell Proliferation Assay (Promega) was added for 2 h prior to reading the absorbance at 490 nm to obtain OD values.

[2] = test system: HUVEC proliferation induced by FGF-1; experiment: Growth factor induced endothelial cell proliferation assay, FGF-1; type: cell-based, human; settings: 72 h, read-out: FGF-1 (IC50) inhibition of HUVEC proliferation
Text: as §2, §1, §3

[3] = test system: HUVEC proliferation induced by FGF-2; experiment: Growth factor induced endothelial cell proliferation assay, FGF-2; type: cell-based, human; settings: 72 h, read-out: FGF-2 (IC50) inhibition of HUVEC proliferation
Text: as §2, §1, §3

HSV-1 = experiment: Viral plaque number-reduction assay, HSV-1; settings: plaques in GMK AH1 cells (Table 9, footnote b)
Description: African green monkey kidney (GMK AH1) cells^46 were cultured in Eagle's minimum essential medium (EMEM) supplemented with 2% calf serum, 0.05% Primaton RL substance (Kraft Inc., Norwich, USA) and antibiotics. Human epidermoid carcinoma (HEp-2) cells were cultured in Dulbecco's modified EMEM (DMEM) supplemented with 10% fetal calf serum and antibiotics. […] The RSV strain A-2^50 was used. The RSV stock was prepared as described by Hallak et al.^51 and stored at −70° C. in the presence of 40% sucrose^52.
The viral infectivity (the plaque number-reduction) assay and the plaque size-reduction assay were carried out as described previously^17. […] Subsequently, the cells were washed with 2 mL of EMEM and overlaid with 1% methylcellulose solution in EMEM. The plaques were visualized by staining with crystal violet solution after 2 (HSV-2) or 3 (HSV-1) days of incubation at 37° C. […] When the compounds were screened for anti-HSV or anti-RSV activity, mixtures of 200 PFU of the virus and the test compound (100 μg/mL) in serum-free EMEM were incubated for 10 min at room temperature before addition to cells and during the entire period of viral infection of cells and the development of viral plaques. In the plaque size-reduction assay, the compounds were added to cells (in methylcellulose overlay medium) after 2 h period of virus infection of cells in the absence of the inhibitor. After 2-3 days of incubation at 37° C., the viral plaques were visualized by staining the cells with 1% solution of crystal violet. For each compound tested, the images of twenty neighboring plaques were captured using a Leica DC300 digital camera attached to a Leitz-Wetzlar Diavert microscope. The area of each plaque was determined using IM500 image software (Leica). Similar protocols were used for RSV, except that the assays were performed in HEp-2 cells and DMEM supplemented with 2% heat-inactivated fetal calf serum was used instead of EMEM.

Compound: CC(C)CCC[C@@H](C)[C@H]1CC[C@H]2[C@@H]3CC[C@H]4C[C@@H](O[C@H]5O[C@H](COS(=O)(=O)O)[C@@H](OS(=O)(=O)O)[C@H](OS(=O)(=O)O)[C@@H]5O[C@H]5O[C@H](COS(=O)(=O)O)[C@@H](OS(=O)(=O)O)[C@H](OS(=O)(=O)O)[C@@H]5OS(=O)(=O)O)CC[C@]4(C)[C@H]3CC[C@]12C [Compound 33, 3β-Cholestanyl 2,3,4,6-tetra-O-sodium sulfonato-α-D-mannopyranosyl-(1→2)-3,4,6-tri-O-sodium sulfonato-α-D-mannopyranoside]
inhibition at 10 µM (HUVECs; Homo sapiens, HUVEC, read-out: Microtubule Formation % inhibition at 10 μM): 14%
IC50 ([1]; Homo sapiens, HUVEC): 1.85 µM
IC50 ([2]; Homo sapiens, HUVEC): > 10 µM
IC50 ([3]; Homo sapiens, HUVEC): 2.22 µM

Compound: CC(C)CCC[C@@H](C)[C@H]1CC[C@H]2[C@@H]3CCC4CC(O[C@H]5O[C@H](COS(=O)(=O)[O-])[C@@H](OS(=O)(=O)[O-])[C@H](O[C@H]6O[C@H](COS(=O)(=O)[O-])[C@@H](OS(=O)(=O)[O-])[C@H](O[C@H]7O[C@H](COS(=O)(=O)[O-])[C@@H](OS(=O)(=O)[O-])[C@H](OS(=O)(=O)[O-])[C@@H]7OS(=O)(=O)[O-])[C@@H]6OS(=O)(=O)[O-])[C@@H]5OS(=O)(=O)[O-])CC[C@]4(C)[C@H]3CC[C@]12C.[Na+].[Na+].[Na+].[Na+].[Na+].[Na+].[Na+].[Na+].[Na+].[Na+] (stereo partly drawn) [Compound 56, 3′-Cholestanyl 2,3,4,6-tetra-O-sodium sulfonato-α-D-mannopyranosyl-(1→3)-2,4,6-tri-O-sodium sulfonato-α-D-mannopyranosyl-(1→3)-3,4,6-tri-O-sodium sulfonato-α-D-mannopyranoside]
Microtubule Formation % inhibition at 10 μM (HUVECs): 67%
IC50 [1]: 1.72 µM
IC50 [2]: 2.52 µM
IC50 [3]: 1.8 µM

Compound: CC(C)CCC[C@@H](C)[C@H]1CC[C@H]2[C@@H]3CCC4C[C@@H](OCc5cn(CCCO[C@H]6O[C@H](COS(=O)(=O)[O-])[C@@H](OS(=O)(=O)[O-])[C@H](O[C@H]7O[C@H](COS(=O)(=O)[O-])[C@@H](OS(=O)(=O)[O-])[C@H](O[C@H]8O[C@H](COS(=O)(=O)[O-])[C@@H](OS(=O)(=O)[O-])[C@H](OS(=O)(=O)[O-])[C@@H]8OS(=O)(=O)[O-])[C@@H]7OS(=O)(=O)[O-])[C@@H]6OS(=O)(=O)[O-])nn5)CC[C@]4(C)[C@H]3CC[C@]12C.[Na+].[Na+].[Na+].[Na+].[Na+].[Na+].[Na+].[Na+].[Na+].[Na+] (stereo partly drawn) [Compound 60, 3-{4-(Cholestan-3β-yl-oxymethyl)-[1,2,3]triazol-1-yl}propyl 2,3,4,6-tetra-O-sodium sulfonato-α-D-mannopyranosyl-(1→3)-2,4,6-tri-O-sodium sulfonato-α-D-mannopyranosyl-(1→3)-3,4,6-tri-O-sodium sulfonato-α-D-mannopyranoside]
Microtubule Formation % inhibition at 10 μM (HUVECs): 49%
IC50 [1]: 1.44 µM
IC50 [2]: 2.61 µM
IC50 [3]: 1.22 µM

HSV-1 KOS321 strain IC50 (HSV-1): 0.25 µg/mL
Compound: CC(C)CCC[C@@H](C)[C@H]1CC[C@H]2[C@@H]3CCC4CC(OCc5cn([C@@H]6O[C@H](COS(=O)(=O)[O-])[C@@H](O[C@H]7O[C@H](COS(=O)(=O)[O-])[C@@H](O[C@H]8O[C@H](COS(=O)(=O)[O-])[C@@H](OS(=O)(=O)[O-])[C@H](OS(=O)(=O)[O-])[C@H]8OS(=O)(=O)[O-])[C@H](OS(=O)(=O)[O-])[C@H]7OS(=O)(=O)[O-])[C@H](OS(=O)(=O)[O-])[C@H]6OS(=O)(=O)[O-])nn5)CC[C@]4(C)[C@H]3CC[C@]12C.[Na+].[Na+].[Na+].[Na+].[Na+].[Na+].[Na+].[Na+].[Na+].[Na+] (stereo partly drawn) [Compound 70, 4-(Cholestan-3-yl-oxymethyl)[1,2,3]triazol-1-yl 2,3,4,6-tetra-O-sodium sulfonato-α-D-glucopyranosyl-(1→4)-2,3,6-tri-O-sodium sulfonato-α-D-glucopyranosyl-(1→4)-1-deoxy-2,3,6-tri-O-sodium sulfonato-β-D-glucopyranoside]
Microtubule Formation % inhibition at 10 μM (HUVECs): 52%
IC50 [1]: 2.2 µM
IC50 [2]: 2.3 µM
IC50 [3]: 0.64 µM

Compound: CCCCCCCCCCCCCCCCCC(=O)NCCCO[C@@H]1O[C@H](COS(=O)(=O)[O-])[C@@H](O[C@H]2O[C@H](COS(=O)(=O)[O-])[C@@H](O[C@H]3O[C@H](COS(=O)(=O)[O-])[C@@H](O[C@H]4O[C@H](COS(=O)(=O)[O-])[C@@H](OS(=O)(=O)[O-])[C@H](OS(=O)(=O)[O-])[C@H]4OS(=O)(=O)[O-])[C@H](OS(=O)(=O)[O-])[C@H]3OS(=O)(=O)[O-])[C@H](OS(=O)(=O)[O-])[C@H]2OS(=O)(=O)[O-])[C@H](OS(=O)(=O)[O-])[C@H]1OS(=O)(=O)[O-].[Na+].[Na+].[Na+].[Na+].[Na+].[Na+].[Na+].[Na+].[Na+].[Na+].[Na+].[Na+].[Na+] [Compound 128, 3-Stearamidopropyl 2,3,4,6-tetra-O-sulfo-α-D-glucopyranosyl-(1→4)-2,3,6-tri-O-sulfo-α-D-glucopyranosyl-(1→4)-2,3,6-tri-O-sulfo-α-D-glucopyranosyl-(1→4)-2,3,6-tri-O-sulfo-β-D-glucopyranoside, tridecasodium salt]
IC50 ([3]; Homo sapiens, HUVEC): 0.77 µM
